Measured values as given in patent US11046646B2, “Alkylphenyl compounds” (BRISTOL-MYERS SQUIBB COMPANY, priority 2017, dated 2021).

Tests used:
[1] = target: S1P1 (Homo sapiens (Human), UniProt P21453); experiment: Receptor [35S] GTPγS binding assay, S1P1; assay type: biochemical; conditions: for GTPγS S1P1 EC50 value as compared to Comparative Compound 20: in words; for EC50: membranes from S1P1/CHO cells, synthetically prepared phosphorylated compounds
Description: (§1) Receptor [^35S] GTPγS Binding Assays:
(§2) Compounds were loaded in a 384 Falcon v-bottom plate (0.5 μL/well in a 11 point, 3-fold dilution). Membranes prepared from S1P1/CHO cells or EDG3-Gal5-bla HEK293T cells (EDG3 equivalent S1P3) were added to the compound plate (40 μL/well, final protein 3 μg/well) with MULTIDROP®. [^35S]GTP (1250 Ci/mmol, Perkin Elmer) was diluted in assay buffer: 20 mM HEPES, pH7.5, 10 mM MgCl2, 150 mM NaCl, 1 mM EGTA(ethylene glycol tetraacetic acid), 1 mM DTT (dithiothreitol), 10 μM GDP, 0.1% fatty acid free BSA, and 10 μg/ml Saponin to 0.4 nM. 40 μL of the [^35S] GTP solution was added to the compound plate with a final concentration of 0.2 nM. The reaction was kept at room temperature for 45 min. At the end of incubation, all the mixtures in the compound plate were transferred to Millipore 384-well FB filter plates via the VELOCITY11® Vprep liquid handler. The filter plate was washed with water 4 times by using the manifold Embla plate washer and dried at 60° C. for 45 min. MicroScint 20 scintillation fluid (30 μL) was added to each well for counting on the Packard TOPCOUNT®. EC50 is defined as the agonist concentration that corresponds to 50% of the Ymax (maximal response) obtained for each individual compound tested.
A smaller value for GTPγS S1P1 EC50 value indicated greater activity for the compound in the GTPγS S1P1 binding assay. Thus the compounds of the present invention may be used in treating, preventing, or curing various S1P1 receptor-related conditions. The compounds have potential use in treating, preventing, or curing autoimmune and inflammatory diseases such as multiple sclerosis, rheumatoid arthritis, inflammatory bowel disease, lupus, psoriasis, or minimizing or reducing rejection of transplanted organs.

[2] = target: S1P3 (EDG3) (Homo sapiens (Human), UniProt Q99500); experiment: Receptor [35S] GTPγS binding assay, S1P3; assay type: biochemical; conditions: membranes from EDG3-Gal5-bla HEK293T cells; synthetically prepared phosphorylated compounds
Description: as §1, §2

Sequence of S1P3 (EDG3) (Q99500 whole entry): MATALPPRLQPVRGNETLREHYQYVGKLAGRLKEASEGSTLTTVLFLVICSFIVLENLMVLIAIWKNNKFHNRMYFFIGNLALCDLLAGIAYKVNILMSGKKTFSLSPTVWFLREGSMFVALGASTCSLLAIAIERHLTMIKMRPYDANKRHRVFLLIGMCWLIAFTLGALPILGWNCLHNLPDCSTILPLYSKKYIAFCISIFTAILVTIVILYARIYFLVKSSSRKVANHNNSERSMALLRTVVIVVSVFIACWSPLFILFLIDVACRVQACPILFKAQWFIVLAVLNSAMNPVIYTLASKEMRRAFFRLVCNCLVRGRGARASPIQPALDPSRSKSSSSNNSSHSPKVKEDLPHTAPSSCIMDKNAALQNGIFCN
Sequence of S1P1 (P21453 whole entry): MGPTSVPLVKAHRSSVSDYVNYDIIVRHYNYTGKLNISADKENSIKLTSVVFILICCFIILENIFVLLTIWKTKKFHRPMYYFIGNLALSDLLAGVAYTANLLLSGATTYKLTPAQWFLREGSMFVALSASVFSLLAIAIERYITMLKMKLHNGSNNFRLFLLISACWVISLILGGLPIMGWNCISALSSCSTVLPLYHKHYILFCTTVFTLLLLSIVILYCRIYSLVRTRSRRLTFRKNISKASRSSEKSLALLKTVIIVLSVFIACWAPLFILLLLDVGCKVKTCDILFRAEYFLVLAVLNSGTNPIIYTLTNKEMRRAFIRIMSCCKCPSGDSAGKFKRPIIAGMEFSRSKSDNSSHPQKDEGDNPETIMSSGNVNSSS

Structure (SMILES)	GTPγS S1P1 EC50 value as compared to Comparative Compound 20 [1]	EC50 [1] [nM]	EC50 [2] [nM]
CCCCCCCCc1ccc(CN2CCC(N)(COP(=O)(O)O)C2=O)cc1 (stereo not shown) [Example 14, (3-amino-1-(4-octylbenzyl)-2-oxopyrrolidin-3-yl)methyl dihydrogen phosphate]	significant improvement	41	> 30000
CCCCCCCCc1ccc(N2CCC(N)(COP(=O)(O)O)C2=O)c(C)c1 (stereo not shown) [Example 17, (3-amino-1-(2-methyl-4-octylphenyl)-2-oxopyrrolidin-3-yl)methyl dihydrogen phosphate]	significant improvement	161	> 60000
CCCCCCCCc1ccc(N2CCC(N)(COP(=O)(O)O)C2=O)cc1 (stereo not shown) [Example 18, (3-amino-1-(4-octylphenyl)-2-oxopyrrolidin-3-yl)methyl dihydrogen phosphate]		454	> 60000
CCCCCCCCc1ccc(N2CCC(N)(COP(=O)(O)O)C2)cc1 (stereo not shown) [compound 20, (3-amino-1-(4-octylphenyl)pyrrolidin-3-yl)methyl dihydrogen phosphate, reference compound]		384	> 30000
